In test [1] the test system is A498. Put plainly: Cell culture and GI50 determination (resazurin). The format is cell-based. Conditions: Homo sapiens, A498, 48h incubation. On the procedure: (§1) MDA-MB-231 (breast cancer) and KM12 (colon cancer) cells obtained from the UZH Cancer Institute, HOP-92 (lung cancer) cells purchased from the National Cancer Institute (NCl) and A498 (kidney cancer) cells obtained from Prof. Krek (Institute of Cell Biology, ETH Zurich) were cultured in Dulbecco's modified Eagle's medium (DMEM) supplemented with 10% (v/v) fetal bovine serum. K562 leukemia cells obtained from Dr. Silvio Hemmi (Institute of Molecular Life Sciences, UZH) were cultured using RPMI medium supplemented with 5% (v/v) fetal bovine serum. All the media was additionally supplemented with 100 units/mL of penicillin, 100µg/mL of streptomycin, 4.5 g/L glucose, 0.11g/L sodium pyrubate and 2mM glutamine and the cells were grown at 37 °C in 5% CO2 atmosphere with 80% relative humidity.
(§2) MDA-MB-231, HT-29, KM12, HOP-92 and A498 cells were plated at 10,000 cells per well (100 µL per well) in 96-well culture dishes and allowed to incubate for 24 h. The old media was removed, the cells were washed with PBS (phosphate-buffered saline) and fresh media was added. A 5 mmol/L solution of inhibitor (in 100% DMSO) was serially diluted in the culture media (12 different concentrations were used) and allowed to incubate for 72 h (MDA-MB-231) or 48h (A498). Control cells were treated with the same DMSO concentrations. After the incubation period the media was once more removed and the cells were washed with PBS to then be incubated with fresh media containing 86 nmol/L resazurin. After 3 hours, the fluorescence was quantified using a fluorescence microplate reader (Biotek, FLx800™) at the respective excitation and emission wavelength of 560 and 590 nm. Resazurin becomes fluorescent under mitochondrial reduction and its emission directly correlates with the metabolic stability of the cells. The measured fluorescence values were corrected from the control samples containing DMSO and GI50 values were determined by plotting the fraction of metabolically active cells against the log of the drug concentration. All measurements were performed at least in triplicate.

The test system of test [2] is HOP-92. Put plainly: Cell culture and GI50 determination (resazurin). Conditions: Homo sapiens; HOP-92, resazurin. The format is cell-based. On the procedure: as §1, §2
A general note: Resazurin is reduced to fluorescent resorufin, in cell work by metabolically active cells.

Test [3] concerns KM12. Description: Cell culture and GI50 determination (resazurin). Conditions: Homo sapiens. The test is classed as cell-based. On the procedure: as §1, §2
The test system of test [4] is MDA-MB-231. Description: Cell culture and GI50 determination (resazurin). Conditions: Homo sapiens, MDA-MB-231, 72 h incubation. The test is classed as cell-based. As for the experimental part:
as §1, §2

In test [5] the target is T1, EphA3 (Homo sapiens, UniProt P29320).
T1 sequence (P29320 21-983): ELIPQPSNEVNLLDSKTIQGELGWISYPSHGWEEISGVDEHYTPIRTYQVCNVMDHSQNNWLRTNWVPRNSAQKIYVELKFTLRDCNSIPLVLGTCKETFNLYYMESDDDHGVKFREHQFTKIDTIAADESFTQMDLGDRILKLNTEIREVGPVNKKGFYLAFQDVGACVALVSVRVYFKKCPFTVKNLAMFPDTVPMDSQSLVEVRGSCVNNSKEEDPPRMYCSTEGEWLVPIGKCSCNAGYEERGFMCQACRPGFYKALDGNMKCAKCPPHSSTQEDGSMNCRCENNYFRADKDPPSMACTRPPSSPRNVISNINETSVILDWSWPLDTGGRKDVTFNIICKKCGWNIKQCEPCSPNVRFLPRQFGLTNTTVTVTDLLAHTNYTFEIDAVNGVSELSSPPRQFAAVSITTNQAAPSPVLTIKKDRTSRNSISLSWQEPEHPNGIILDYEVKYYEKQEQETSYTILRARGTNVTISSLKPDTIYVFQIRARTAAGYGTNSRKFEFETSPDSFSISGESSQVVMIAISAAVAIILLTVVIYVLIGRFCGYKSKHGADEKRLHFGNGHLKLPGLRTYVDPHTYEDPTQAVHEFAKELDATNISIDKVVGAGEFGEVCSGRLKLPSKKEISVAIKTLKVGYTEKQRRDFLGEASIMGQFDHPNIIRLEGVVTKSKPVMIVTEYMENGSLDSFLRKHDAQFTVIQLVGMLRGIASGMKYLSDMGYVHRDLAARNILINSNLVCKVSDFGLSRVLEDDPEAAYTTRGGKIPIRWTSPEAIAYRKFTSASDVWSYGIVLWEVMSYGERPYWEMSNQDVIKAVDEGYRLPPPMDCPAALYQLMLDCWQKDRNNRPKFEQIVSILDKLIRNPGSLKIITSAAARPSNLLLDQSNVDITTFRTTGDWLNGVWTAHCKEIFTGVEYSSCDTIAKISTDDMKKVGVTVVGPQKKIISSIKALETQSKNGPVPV
Put plainly: Surface Plasmon Resonance (SPR) determination of binding and unbinding kinetics. Conditions: immobilized EphA3, 25 °C. On the procedure:
The affinity of compound 2 towards EphA3 was determined using Surface Plasmon Resonance measurements on a ProteOn XPR36 (Bio-Rad Laboratories, AG). EphA3 was immobilized on a GLH chip (Bio-Rad Laboratories AG) by standard amine coupling procedures achieving a RU of 4000-6000 and equilibrated with steriled-filtered buffer (10mM HEPES, 150mM NaCl, 3mM EDTA, 0.005% Tween 20 pH 8.0) with a flow rate of 60µL/min. Association of compound 2 was performed at 25 °C using serial dilutions of the inhibitors in duplicates for 400s, whereas dissociation of the inhibitors from the chip was monitored for 36,000 seconds. Data were normalized using interspot referencing and subtraction of a separate analyte channel run with buffer and BSA. All sensograms were fitted using a 1:1 Langmuir model provided by the ProteOn Manager Software (Bio-Rad Laboratories AG), and the association (kon) and dissociation ([…]) rate constants were used to determine the equilibrium dissociation constants (KD).

The target of test [6] is T1, EphA3. Put plainly: Differential Scanning Fluorimetry. The format is binding. Conditions: 2 µmol/L EphA3, test compound 20 µmol/L, pH 8.0; read-out: difference in the melting temperature Tm (Δ Tm). As for the experimental part:
To a 2 µmol/L solution of EphA3 in 10mM Tris HCl buffer (pH 8.0) containing 100mM NaCl, 5X SYPRO Orange fluorescent dye together with the test compounds prediluted in DMSO at a concentration of 20 µmol/L (1.4% final DMSO concentration). A final volume of 40 µL was added per well in a 96-well plate and incubated at room temperature for 1 h. The plates were centrifuged for 3 min at 450 rcf. The temperature gradient was performed in the range of 25 to 75 °C (50 acquisitions per degree at a ramp rate of […]) using a LightCycler 480 Real-Time PCR System. The detection of protein unfolding was performed with an excitation wavelength of 488 nm and an emission of 580 nm. All measurements were performed in triplicate. Compound 2 comprises a difference in the melting temperature Tm (corresponding to the temperature at which the concentrations of folded and unfolded protein are equal) with respect to EphA3 of 11.44 °C (Δ Tm), whereas prior art compounds 17 and 87 presented differences in the melting temperature Tm with respect to EphA3 of 1.6 and 0.7 °C, respectively.

SMILES strings stand for the structures.

This note sets out measurements from EP2924040A1, “2-Amino-1-(o-tolyl)pyrrolo[3,2-b]quinoxaline-3-carboxamide derivates” (Universität Zürich, priority 2014, dated 2015).

Turning to `Cc1ccc(O)cc1-n1c(N)c(C(N)=O)c2nc3ccccc3nc21` [Compound 2, 2-Amino-1-(5-hydroxy-2-methylphenyl)-1H-pyrrolo[2,3-b]quinoxaline-3-carboxamide], the GI50 was 5.88 µM in test [1], 0.49 µM in test [2], 1.55 µM in test [3] and 2.64 µM in test [4]. For the same compound, the dissociation constant (Kd) in test [5] (1:1 Langmuir model, read-out: dissociation constant (KD)) came out at 0.006 µM. Also, the residence time in test [5] (reciprocal value of koff, read-out: τoff (residence time) (converted)) is 11 min. In test [6], the ΔTm at 20 µM is 11.4 °C.

As usually defined, the GI50 is the concentration at which growth is held to half of that of the control. What is called Kd is a measure of binding affinity in units of concentration. The term residence time denotes how long the partners stay bound on average.
